Experiments:
MRC-5 normal fibroblasts = test: Antiproliferative assay (MTT reduction), MRC-5 normal lung fibroblasts; assay type: cell-based, human; settings: for IC50: Homo sapiens, MRC5, 72 h, MRC-5 normal fibroblasts, 3 days treatment, MTT reduction, mean ± SD, >100 µM considered inactive; for antiproliferative activity against MRC-5 (in words): up to 100 µM
Procedure: (§1) All human cell lines used in this work were purchased from the American Type Culture Collection (ATCC, Manasas, VA, USA). […] Promyelocytic leukemia HL-60 cells (CCL-240) were grown in suspension in RPM1 medium containing 1 mM sodium pyruvate and 2.0 g/L sodium bicarbonate. All media were supplemented with 10% heat-inactivated FBS, 100 IU/mL penicillin and 100 µg/mL streptomycin. Cells were grown in a humidified incubator with 5% CO2 in air at 37 °C. For the antiproliferative assay, adherent cells were plated at a density of 5 × 10^4 cells/mL and HL-60 cells at 30 × 10^4 cells/mL. Cells were seeded in 96-well plates (100 µL/well). One day after seeding, cells were treated with medium containing the compounds at concentrations ranging from 0 up to 100 µM during 3 days. The compounds were dissolved in DMSO (1% final concentration) and complete medium. Untreated cells (medium containing 1% DMSO) were used as 100% viability controls. […] Each concentration was tested in sextuplicate and experiments were repeated 2 times. Cell viability was determined by means of the MTT reduction assay at the end of the incubation with the products.

AGS cells = test: Antiproliferative assay (MTT reduction), AGS gastric adenocarcinoma cells; assay type: cell-based, human; settings: for IC50: Homo sapiens, 72 h, AGS gastric adenocarcinoma, 3 days treatment, MTT reduction, mean ± SD, >100 µM considered inactive; for antiproliferative activity against AGS (in words): up to 100 µM
Procedure: (§2) The compounds 1–20 were assessed for antiproliferative effect towards human lung fibroblasts (MRC-5) and the following human tumor cell lines: gastric adenocarcinoma (AGS), lung cancer cells (SK-MES-1), bladder carcinoma (J82) and promyelocytic leukemia (HL-60).
(§3) All human cell lines used in this work were purchased from the American Type Culture Collection (ATCC, Manasas, VA, USA). Normal lung MRC-5 fibroblasts (CCL-171), SK-MES-1 lung cancer cells (HTB-58) and J82 bladder carcinoma cells (HTB-1) were grown as monolayers in minimum essential Eagle medium (MEM) with Earles’s salts, 2 mM L-glutamine and 1.5 g/L sodium bicarbonate. Gastric adenocarcinoma AGS cells (CRL-1739) were grown as monolayers in Ham F-12 medium containing 1 mM L-glutamine and 1.5 g/L sodium bicarbonate. Promyelocytic leukemia HL-60 cells (CCL-240) were grown in suspension in RPM1 medium containing 1 mM sodium pyruvate and 2.0 g/L sodium bicarbonate. All media were supplemented with 10% heat-inactivated FBS, 100 IU/mL penicillin and 100 µg/mL streptomycin. Cells were grown in a humidified incubator with 5% CO2 in air at 37 °C. For the antiproliferative assay, adherent cells were plated at a density of 5 × 10^4 cells/mL and HL-60 cells at 30 × 10^4 cells/mL. Cells were seeded in 96-well plates (100 µL/well). One day after seeding, cells were treated with medium containing the compounds at concentrations ranging from 0 up to 100 µM during 3 days. The compounds were dissolved in DMSO (1% final concentration) and complete medium. Untreated cells (medium containing 1% DMSO) were used as 100% viability controls. […] Each concentration was tested in sextuplicate and experiments were repeated 2 times. Cell viability was determined by means of the MTT reduction assay at the end of the incubation with the products. The results were transformed to percentage of controls and the IC50 values were graphically obtained from the dose-response curves.

[1] = test system: SK-MES-1 lung cancer cells; test: Antiproliferative assay (MTT reduction), SK-MES-1 lung cancer cells; assay type: cell-based, human; settings: for IC50: Homo sapiens, 72 h, SK-MES-1 lung cancer cells, 3 days treatment, MTT reduction, mean ± SD, >100 µM considered inactive; for antiproliferative activity against SK-MES-1 (in words): up to 100 µM
Procedure: as §1

[2] = test system: J82 bladder carcinoma cells; test: Antiproliferative assay (MTT reduction), J82 bladder carcinoma cells; assay type: cell-based, human; settings: for IC50: Homo sapiens, 72 h, J82 bladder carcinoma, 3 days treatment, MTT reduction, mean ± SD, >100 µM considered inactive; for antiproliferative activity against J82 (in words): up to 100 µM
Procedure: as §1

HL-60 cells = test: Antiproliferative assay (MTT reduction), HL-60 promyelocytic leukemia cells; assay type: cell-based, human; settings: for IC50: Homo sapiens, 72 h, HL-60 promyelocytic leukemia, 3 days treatment, MTT reduction, mean ± SD, >100 µM considered inactive; for antiproliferative activity against HL-60 (in words): up to 100 µM
Procedure: as §1

[3] = test system: MRC-5, AGS, SK-MES-1, J82 and HL-60 cell lines; test: Antiproliferative assay, panel of five human cell lines (summary in words); assay type: cell-based; settings: SK-MES-1, J82, HL-60, up to 100 µM
Procedure: as §2, §3

Compound	IC50 (AGS cells)	IC50 [1]	IC50 [2]	IC50 (HL-60 cells)	IC50 (MRC-5 normal fibroblasts)	antiproliferative effect on the five cell lines (in words) [3]	antiproliferative activity against MRC-5 (in words) (MRC-5 normal fibroblasts)	antiproliferative activity against AGS (in words) (AGS cells)	antiproliferative activity against SK-MES-1 (in words) [1]	antiproliferative activity against J82 (in words) [2]	antiproliferative activity against HL-60 (in words) (HL-60 cells)
C=C1CCC2[C@](C)(CCC[C@]2(C)C(=O)OC)[C@H]1CC[C@@H](C)CCO (some centres unmarked) [Compound 1, 15-Hydroxyimbricatolic acid methyl ester]	38.5 ± 1.6 µM	59.7 ± 2.4 µM	63.7 ± 2.6 µM	47.5 ± 3.9 µM	77.7 ± 4 µM						
C=C1CCC2[C@](C)(CCC[C@]2(C)C(=O)O)[C@H]1CC[C@@H](C)CC(=O)O (some centres unmarked) [Compound 2, Labd-8(17)-en-15,19-dioic acid]	> 100 µM	> 100 µM	> 100 µM	> 100 µM	> 100 µM	no antiproliferative effect on any of the cell lines					
C=C1CCC2[C@](C)(CCC[C@]2(C)C(=O)OC)[C@H]1CC[C@@H](C)CCN=[N+]=[N-] (some centres unmarked) [Compound 3, 15-Azidoimbricatolic acid methyl ester]	73.8 ± 5.2 µM	67.6 ± 3.4 µM	> 100 µM	22.3 ± 3.1 µM	91.8 ± 6.4 µM						
C=C1CCC2[C@](C)(CCC[C@]2(C)C(=O)OC)[C@H]1CC[C@@H](C)CCn1cc(CO)nn1 (some centres unmarked) [Compound 4, 15-(4-(Hydroxymethyl)-1H-1,2,3-triazol-1-yl)-imbricatolic acid methyl ester]	41.5 ± 2.1 µM	67.7 ± 3.1 µM	60.7 ± 4.6 µM	> 100 µM	77.4 ± 3.9 µM						
C=C1CCC2[C@](C)(CCC[C@]2(C)C(=O)OC)[C@H]1CC[C@@H](C)CCn1cc(CCO)nn1 (some centres unmarked) [Compound 5, 15-(4-(2-Hydroxyethyl)-1H-1,2,3-triazol-1-yl)-imbricatolic acid methyl ester]	54.8 ± 3.3 µM	57.2 ± 3.4 µM	56.2 ± 3.9 µM	48.9 ± 4.5 µM	75.8 ± 5.3 µM						
C=C1CCC2[C@](C)(CCC[C@]2(C)C(=O)OC)[C@H]1CC[C@@H](C)CCn1cc(CCC(=O)O)nn1 (some centres unmarked) [Compound 6, 15-(4-(2-Carboxyethyl)-1H-1,2,3-triazol-1-yl)-imbricatolic acid methyl ester]	> 100 µM	> 100 µM	> 100 µM	> 100 µM	> 100 µM	no antiproliferative effect on any of the cell lines					
C=C1CCC2[C@](C)(CCC[C@]2(C)C(=O)OC)[C@H]1CC[C@@H](C)CCOCC[C@H](C)CC[C@H]1C(=C)CCC2[C@]1(C)CCC[C@]2(C)C(=O)OC (some centres unmarked) [Compound 7]	> 100 µM	> 100 µM	> 100 µM	> 100 µM	> 100 µM	no antiproliferative effect					
C=C1CCC2[C@](C)(CCC[C@]2(C)C(=O)OC)[C@H]1CC[C@@H](C)CCOCCCCOCC[C@H](C)CC[C@H]1C(=C)CCC2[C@]1(C)CCC[C@]2(C)C(=O)OC (some centres unmarked) [Compound 8]	70.3 ± 6.3 µM	> 100 µM	> 100 µM	57.8 ± 4.1 µM	> 100 µM						
C=C1CCC2[C@](C)(CCC[C@]2(C)C(=O)OC)[C@H]1CC[C@@H](C)CCOCCCCCOCC[C@H](C)CC[C@H]1C(=C)CCC2[C@]1(C)CCC[C@]2(C)C(=O)OC (some centres unmarked) [Compound 9]	17.8 ± 1.3 µM	67.5 ± 6.9 µM	> 100 µM	32.6 ± 2.3 µM	68.1 ± 3.4 µM						
C=C1CCC2[C@](C)(CCC[C@]2(C)C(=O)OC)[C@H]1CC[C@@H](C)CCOCCCCCCCCCOCC[C@H](C)CC[C@H]1C(=C)CCC2[C@]1(C)CCC[C@]2(C)C(=O)OC (some centres unmarked) [Compound 10]	> 100 µM	67.9 ± 5.4 µM	> 100 µM	> 100 µM	> 100 µM						
C=C1CCC2[C@](C)(CCC[C@]2(C)C(=O)O)[C@H]1CC[C@@H](C)CC(=O)OCC[C@H](C)CC[C@H]1C(=C)CCC2[C@]1(C)CCC[C@]2(C)C(=O)OC (some centres unmarked) [Compound 11]	26.1 ± 2.2 µM	> 100 µM	> 100 µM	80.3 ± 5.9 µM	71.2 ± 5.3 µM		showed activity	showed activity	not against SK-MES-1 and J82 cells	not against SK-MES-1 and J82 cells	showed activity
C=C1CCC2[C@](C)(CCC[C@]2(C)C(=O)OC)[C@H]1CC[C@@H](C)CCOC(=O)C[C@H](C)CC[C@H]1C(=C)CCC2[C@]1(C)CCC[C@]2(C)C(=O)OC (some centres unmarked) [Compound 12]	> 100 µM	38.5 ± 2.8 µM	61.4 ± 3.1 µM	> 100 µM	> 100 µM		devoid of activity	devoid of activity	showed effect	showed effect	devoid of activity
C=C1CCC2[C@](C)(CCC[C@]2(C)C(=O)OC)[C@H]1CC[C@@H](C)CCOC(=O)CCC(=O)OCC[C@H](C)CC[C@H]1C(=C)CCC2[C@]1(C)CCC[C@]2(C)C(=O)OC (some centres unmarked) [Compound 13]	62.9 ± 3.9 µM	68.2 ± 4.5 µM	72.1 ± 4.3 µM	60.8 ± 4.2 µM	76.8 ± 5.4 µM						

More lines, main results first:

IC50 (AGS cells)	IC50 [1]	IC50 [2]	IC50 (HL-60 cells)	Compound	IC50 (MRC-5 normal fibroblasts)	antiproliferative effect on the five cell lines (in words) [3]	antiproliferative activity against MRC-5 (in words) (MRC-5 normal fibroblasts)	antiproliferative activity against AGS (in words) (AGS cells)	antiproliferative activity against SK-MES-1 (in words) [1]	antiproliferative activity against J82 (in words) [2]	antiproliferative activity against HL-60 (in words) (HL-60 cells)
51.7 ± 2.8 µM	> 100 µM	> 100 µM	55.6 ± 3.9 µM	C=C1CCC2[C@](C)(CCC[C@]2(C)C(=O)OC)[C@H]1CC[C@@H](C)CCOC(=O)c1ccccc1C(=O)OCC[C@H](C)CC[C@H]1C(=C)CCC2[C@]1(C)CCC[C@]2(C)C(=O)OC (some centres unmarked) [Compound 14]	76.3 ± 5.8 µM						
39.4 ± 2.4 µM	56 ± 4.5 µM	84.7 ± 6.8 µM	44.1 ± 4.1 µM	C=C1CCC2[C@](C)(CCC[C@]2(C)C(=O)O)[C@H]1CC[C@@H](C)CC(=O)OCc1cn(CC[C@H](C)CC[C@H]2C(=C)CCC3[C@]2(C)CCC[C@]3(C)C(=O)OC)nn1 (some centres unmarked) [Compound 15]	> 100 µM						
> 100 µM	> 100 µM	> 100 µM	> 100 µM	C=C1CCC2[C@](C)(CCC[C@]2(C)C(=O)OC)[C@H]1CC[C@@H](C)CCn1cc(COC(=O)C[C@H](C)CC[C@H]2C(=C)CCC3[C@]2(C)CCC[C@]3(C)C(=O)OC)nn1 (some centres unmarked) [Compound 16]	> 100 µM						
23.4 ± 1.4 µM	67.5 ± 4.9 µM	34.6 ± 2.5 µM	23.2 ± 3.1 µM	C=C1CCC2[C@](C)(CCC[C@]2(C)C(=O)O)[C@H]1CC[C@@H](C)CC(=O)OCCc1cn(CC[C@H](C)CC[C@H]2C(=C)CCC3[C@]2(C)CCC[C@]3(C)C(=O)OC)nn1 (some centres unmarked) [Compound 17]	79.6 ± 5.1 µM						
> 100 µM	> 100 µM	> 100 µM	> 100 µM	C=C1CCC2[C@](C)(CCC[C@]2(C)C(=O)OC)[C@H]1CC[C@@H](C)CCn1cc(CCOC(=O)C[C@H](C)CC[C@H]2C(=C)CCC3[C@]2(C)CCC[C@]3(C)C(=O)OC)nn1 (some centres unmarked) [Compound 18]	> 100 µM						
0.58 ± 0.02 µM				COc1cc([C@@H]2c3cc4c(cc3[C@@H](O[C@@H]3O[C@@H]5CO[C@@H](C)O[C@H]5[C@H](O)[C@H]3O)[C@H]3COC(=O)[C@H]23)OCO4)cc(OC)c1O [Etoposide, reference compound]							

Source: publication PMC6270601, “Dimeric Labdane Diterpenes: Synthesis and Antiproliferative Effects” (Molecules, 2013)
